# Results as given in patent publication US20100003217A1, “Compounds and Pharmaceutical Compositions for the Treatment of Viral Infections” (priority 2008, published 2010).
# Values joined by “and” are separate entries in the source; they are usually repeats but may differ in a detail not shown here. Identical values can stand only once.
# Tested on: Huh-7 cells
# Test: Metabolic disposition of [^14C]-Compound 1 and [^14C]-2′-C-methyl guanosine in Huh-7 cells (incubation medium, cellular extracts, nucleotide levels)
# Format: in vitro ADME, human
# Conditions: for Major metabolites observed in cellular extracts (% of total radioactivity) / 2′-C-methyl guanosine nucleotide levels in cellular extracts: Huh7; for % Residual [^14C]-Compound 1 in incubation medium / metabolites observed in medium (% of total radioactivity): Huh7 cells (n=2); for % Residual [^14C]-Compound 1 in incubation medium: 10 μM
# Method: Huh-7 cells: Confluent monolayers of Huh-7 cells were dispersed using trypsin-EDTA, rinsed and pelleted by centrifugation at 1,000 rpm (Beckman, Model Allegra 6R). Cells were resuspended at 0.2, 0.3 and 0.4×10^6 cells/mL of medium (DMEM supplemented with 1% pyruvate, 10% FBS, 0.5% penicillin-streptomycin, 1% L-glutamine, 1% non-essential amino acids and 22 mM HEPES). Multi-well collagen I-coated plates (rat tail collagen type I; 6-well) were then seeded by addition of 2.0 mL of cell suspension to achieve final cell density of 0.4, 0.6 and 0.8×10^6 cells/well and placed in an incubator at 37° C. overnight to allow cells to attach and acclimatize to culture and the medium. Duplicate plates were prepared with the same cell density for cell number determination at each time point.
# Huh-7 incubations were conducted in a final volume of 2.0 mL Huh7 culture medium/well ([…]). Culture medium from overnight incubation of cells was removed and replaced with fresh culture medium, pre-warmed to 37° C. containing [^14C]-Compound 1 or [^14C]-2′-C-methyl guanosine as described above for primary hepatocytes. After 24, 48 and 72 hours, 0.5-1.0 mL of incubation medium was removed and stored at −20° C. until analysis (described below). The remaining medium was discarded and cell monolayers processed and extracted as described above.
# Preliminary identification of putative metabolites was conducted by comparing the retention time of observed metabolites in incubation medium and cellular extracts with retention times obtained with chemically synthesized standards using the chromatography conditions described below. Further identification of 2′-C-methyl guanosine nucleotides (mono-, di- and triphosphate) was carried out by incubating cellular extract samples with alkaline phosphatase (10 units for 60 min at 37° C.) and comparing the HPLC retention times of the resulting nucleosides with that of authentic 2′-C-methyl guanosine.
# Cellular extracts were prepared by centrifugation at 16,000 RCF using an Eppendorf microcentrifuge (Eppendorf, Model 5415D) for 10 min to remove cellular debris. An aliquot of 5-10 μL of the supernatant was added to 5 mL of EcoLite™ (MP, Irvine, Calif.) liquid scintillation cocktail and radioactivity measured by liquid scintillation counting (LSC) using a Beckman Coulter LS6500 multipurpose liquid scintillation counter (Beckman Instruments, Fullerton, Calif.). The remaining sample was then dried using a Labconco refrigerated centrivap concentrator (Labconco, Kansas City, Mo.). Dry extracts were reconstituted in 120 μL of HPLC-grade water and centrifuged at 16,000 RCF using an Eppendorf microcentrifuge for 10 min. Prior to HPLC analysis (described below), radioactivity of the concentrated extracts was measured by LSC using 5 μL aliquots. Extraction recovery was then determined by comparing total radioactivity in extracts before and after drying. The remaining extract was then analyzed by HPLC with online radioactivity detection using a Flow Scintillation Analyzer Radiomatic™ 515TR. Radioactivity in the separated components was quantified by integrating the peaks using Flo-One™ Software (Perkin Elmer Life Sciences). Samples with poor recovery (<85%) were re-analyzed when possible.
# Incubation medium samples were thawed at room temperature, vortexed and centrifuged at 16,000 RCF using an Eppendorf microcentrifuge. An aliquot of 10 μL was added to 5 mL of EcoLite™ (MP, Irvine, Calif.) liquid scintillation cocktail and radioactivity measured by LSC using a Beckman Coulter LS6500 multipurpose liquid scintillation counter (Beckman Instruments, Fullerton, Calif.). Samples (50-100 μL) were then analyzed by HPLC (described below) with online radioactivity detection using a Flow Scintillation Analyzer Radiomatic™ 515TR. Radioactivity in the separated components was quantified by integrating the peaks using Flo-One™ Software (Perkin Elmer Life Sciences). Samples with poor recovery (<85%) were re-analyzed when possible. […]
# [1] = 10 μM [^14C]-Compound 1, 24 h, first series
# [2] = 10 μM [^14C]-Compound 1, 24 h, second series
# [3] = 10 μM [^14C]-Compound 1, 48 h, first series
# [4] = 10 μM [^14C]-Compound 1, 48 h, second series
# [5] = 10 μM [^14C]-Compound 1, 72 h, first series
# [6] = 10 μM [^14C]-Compound 1, 72 h, second series
# [7] = 10 μM [^14C]-2′-C-methyl guanosine, 24 h
# [8] = 10 μM [^14C]-2′-C-methyl guanosine, 48 h
# [9] = 10 μM [^14C]-2′-C-methyl guanosine, 72 h
Major metabolites observed in cellular extracts (% of total radioactivity) [4],"metabolites observed in medium (% of total radioactivity) (10 μM [^14C]-Compound 1, 0 h)","metabolites observed in medium (% of total radioactivity) (10 μM [^14C]-Compound 1, 24 h)","metabolites observed in medium (% of total radioactivity) (10 μM [^14C]-Compound 1, 48 h)","metabolites observed in medium (% of total radioactivity) (10 μM [^14C]-Compound 1, 72 h)",SMILES,Major metabolites observed in cellular extracts (% of total radioactivity) [1],Major metabolites observed in cellular extracts (% of total radioactivity) [2],Major metabolites observed in cellular extracts (% of total radioactivity) [3],Major metabolites observed in cellular extracts (% of total radioactivity) [5],Major metabolites observed in cellular extracts (% of total radioactivity) [6],Major metabolites observed in cellular extracts (% of total radioactivity) [7],Major metabolites observed in cellular extracts (% of total radioactivity) [8],Major metabolites observed in cellular extracts (% of total radioactivity) [9],other results
2.65 % of total radioactivity,BLD and BLD^a,2.2% and 1.10% and 1.2%,2.7% and 0.5%,2% and 2.3% and 1.5%,"C[C@@]1(O)[C@H](O)[C@@H](CO)O[C@H]1n1cnc2c(=O)[nH]c(N)nc21 [2′-C-methyl guanosine, 9-(2-C-methyl-β-D-ribofuranosyl)guanine, reference compound]",BLD^a (BLD = below limit of detection (30 DPM)),BLD^a (BLD = below limit of detection (30 DPM)),BLD (BLD = below limit of detection (30 DPM)),BLD (BLD = below limit of detection (30 DPM)),BLD (BLD = below limit of detection (30 DPM)),89.5 % of total radioactivity,89.3 % of total radioactivity,89.6 % of total radioactivity,metabolites in the incubation medium following incubation with [^14C]-2′-C-methyl guanosine (Huh7 cells): No metabolites were observed
,1.7% and 2.9%,8.2% and 8.0%,18.3% and 17.2%,26% and 25.3% and 27.2%,"C[C@@]1(O)[C@H](O)[C@@H](COP(=O)(O)NCc2ccccc2)O[C@H]1n1cnc2c(=O)[nH]c(N)nc21 [Compound 2, [(2R)-2-methyl-β-D-ribofuranosyl]guanine-N-benzylaminyl-5′-monophosphate]",,,,,,,,,
5.82 % of total radioactivity,BLD,2.0% and 3.2%,0.8% and 1.5%,0.7% and 1.0%,"C[C@@]1(O)[C@H](O)[C@@H](COP(=O)(O)O)O[C@H]1n1cnc2c(=O)[nH]c(N)nc21 [Compound 5, [(2R)-2-methyl-β-D-ribofuranosyl]guanine 5′-monophosphate]",BLD (BLD = below limit of detection (30 DPM)),4.81 % of total radioactivity,6.57 % of total radioactivity,6.93 % of total radioactivity,5.74 % of total radioactivity,BLD^a (BLD = below limit of detection (30 DPM)),BLD (BLD = below limit of detection (30 DPM)),BLD (BLD = below limit of detection (30 DPM)),"2′-C-methyl guanosine nucleotide levels in cellular extracts (10 μM [^14C]-2′-C-methyl guanosine, 0 h, n = 1): 0 pmol/million cells; 2′-C-methyl guanosine nucleotide levels in cellular extracts (10 μM [^14C]-2′-C-methyl guanosine, 24 h, n = 1): BLD^a (BLD = below limit of detection (0.02 pmol/million cells)); 2′-C-methyl guanosine nucleotide levels in cellular extracts (10 μM [^14C]-2′-C-methyl guanosine, 48 h, n = 1): BLD (BLD = below limit of detection (0.02 pmol/million cells)); 2′-C-methyl guanosine nucleotide levels in cellular extracts (10 μM [^14C]-2′-C-methyl guanosine, 72 h, n = 1): BLD (BLD = below limit of detection (0.02 pmol/million cells)); 2′-C-methyl guanosine nucleotide levels in cellular extracts (10 μM [^14C]-Compound 1, 0 h, replicate 1 of n = 2): 0 pmol/million cells; 2′-C-methyl guanosine nucleotide levels in cellular extracts (10 μM [^14C]-Compound 1, 0 h, replicate 2 of n = 2): 0 pmol/million cells; 2′-C-methyl guanosine nucleotide levels in cellular extracts (10 μM [^14C]-Compound 1, 24 h, replicate 1 of n = 2): BLD^a (BLD = below limit of detection (0.02 pmol/million cells)); 2′-C-methyl guanosine nucleotide levels in cellular extracts (10 μM [^14C]-Compound 1, 24 h, replicate 2 of n = 2): 1.40 pmol/million cells; 2′-C-methyl guanosine nucleotide levels in cellular extracts (10 μM [^14C]-Compound 1, 48 h, replicate 1 of n = 2): 1.50 pmol/million cells; 2′-C-methyl guanosine nucleotide levels in cellular extracts (10 μM [^14C]-Compound 1, 48 h, replicate 2 of n = 2): 1.50 pmol/million cells; 2′-C-methyl guanosine nucleotide levels in cellular extracts (10 μM [^14C]-Compound 1, 72 h, replicate 1 of n = 2): 1.10 pmol/million cells; 2′-C-methyl guanosine nucleotide levels in cellular extracts (10 μM [^14C]-Compound 1, 72 h, replicate 2 of n = 2): 1.10 pmol/million cells"

SMILES,Major metabolites observed in cellular extracts (% of total radioactivity) [4],"metabolites observed in medium (% of total radioactivity) (10 μM [^14C]-Compound 1, 0 h)","metabolites observed in medium (% of total radioactivity) (10 μM [^14C]-Compound 1, 24 h)","metabolites observed in medium (% of total radioactivity) (10 μM [^14C]-Compound 1, 48 h)","metabolites observed in medium (% of total radioactivity) (10 μM [^14C]-Compound 1, 72 h)",Major metabolites observed in cellular extracts (% of total radioactivity) [1],Major metabolites observed in cellular extracts (% of total radioactivity) [2],Major metabolites observed in cellular extracts (% of total radioactivity) [3],Major metabolites observed in cellular extracts (% of total radioactivity) [5],Major metabolites observed in cellular extracts (% of total radioactivity) [6],Major metabolites observed in cellular extracts (% of total radioactivity) [7],Major metabolites observed in cellular extracts (% of total radioactivity) [8],Major metabolites observed in cellular extracts (% of total radioactivity) [9],other results
"CC(C)(CO)C(=O)SCCOP(=O)(NCc1ccccc1)OC[C@H]1O[C@@H](n2cnc3c(=O)[nH]c(N)nc32)[C@](C)(O)[C@@H]1O (mixture of isomers) [Compound 1, 3-hydroxy-2,2-dimethyl-thiopropionic acid S-(2-{[(2R,3R,4R,5R)-5-(2-amino-6-oxo-1,6-dihydro-purin-9-yl)-3,4-dihydroxy-4-methyl-tetrahydro-furan-2-ylmethoxy]-benzylamino-phosphoryloxy}-ethyl) ester]",21.2 % of total radioactivity,,,,,40.3 % of total radioactivity,10.4 % of total radioactivity,15.8 % of total radioactivity,14.1 % of total radioactivity,16.2 % of total radioactivity,,,,"% Residual [^14C]-Compound 1 in incubation medium (0 h): 98% and 96%; % Residual [^14C]-Compound 1 in incubation medium (24 h): 86% and 85%; % Residual [^14C]-Compound 1 in incubation medium (48 h): 76% and 77%; % Residual [^14C]-Compound 1 in incubation medium (72 h): 67% and 65% and 68%; unchanged Compound 1, % of the total radioactivity (Huh7 cells, after 72 hours incubation with [^14C]-Compound 1): 15%"
